Source: patent US11873298B2, “Compounds and uses thereof” (JANSSEN PHARMACEUTICA NV, priority 2017, dated 2024)
pIC50: −log10 of the molar value. Several values for one entry are separate records, joined by “and”; a condition that tells them apart may be missing. Equal entries are not always repeated.

Columns and labels:
Format in all cases: cell-based
Ole1 = biological target: T1, Ole1 (Saccharomyces cerevisiae, UniProt P21147); assay: Growth inhibition of yeast strain expressing Ole1 as sole desaturase; settings: yeast strain expressing Ole1 as sole desaturase
T1 construct: expressed in transfected cells; host or cells: S. cerevisiae ole1Δ strain (W303 pdr1Δ pdr3Δ background), plasmid pRS316 with TDH3 promoter and CYC1 terminator
T1 sequence (P21147 1-510): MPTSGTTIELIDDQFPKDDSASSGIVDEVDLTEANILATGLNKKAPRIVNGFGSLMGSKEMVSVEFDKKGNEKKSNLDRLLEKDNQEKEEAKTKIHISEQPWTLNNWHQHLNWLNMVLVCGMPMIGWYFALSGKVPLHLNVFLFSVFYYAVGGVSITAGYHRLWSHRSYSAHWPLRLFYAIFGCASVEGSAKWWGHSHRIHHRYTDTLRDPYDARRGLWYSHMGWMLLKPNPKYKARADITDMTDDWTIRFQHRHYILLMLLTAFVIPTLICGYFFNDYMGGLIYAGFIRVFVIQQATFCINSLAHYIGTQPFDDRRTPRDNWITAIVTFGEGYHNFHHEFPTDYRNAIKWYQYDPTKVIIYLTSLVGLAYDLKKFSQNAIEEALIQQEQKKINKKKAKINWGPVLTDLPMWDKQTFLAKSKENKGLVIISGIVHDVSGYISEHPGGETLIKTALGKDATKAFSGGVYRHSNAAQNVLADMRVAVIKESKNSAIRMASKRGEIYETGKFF
Summary of the method: (§1)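 Measured by optical density at 600 nm, growth of desaturase-dependent yeast (OLE1 deleted; human SCD1, human SCD5 or yeast Ole1 supplied from plasmid) was scored after 24 h (Ole1) or 40 h (SCD1, SCD5) at 30° C. in galactose media lacking uracil with DMSO-delivered compound.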

SCD5 = biological target: T2, SCD5 (Homo sapiens, UniProt Q86SK9); assay: Growth inhibition of humanized yeast strain expressing SCD5 as sole desaturase; settings: humanized yeast strain expressing SCD5
T2 construct: host or cells: S. cerevisiae ole1Δ strain (W303 pdr1Δ pdr3Δ background), plasmid pRS316 with TDH3 promoter and CYC1 terminator
T2 sequence (Q86SK9 1-330): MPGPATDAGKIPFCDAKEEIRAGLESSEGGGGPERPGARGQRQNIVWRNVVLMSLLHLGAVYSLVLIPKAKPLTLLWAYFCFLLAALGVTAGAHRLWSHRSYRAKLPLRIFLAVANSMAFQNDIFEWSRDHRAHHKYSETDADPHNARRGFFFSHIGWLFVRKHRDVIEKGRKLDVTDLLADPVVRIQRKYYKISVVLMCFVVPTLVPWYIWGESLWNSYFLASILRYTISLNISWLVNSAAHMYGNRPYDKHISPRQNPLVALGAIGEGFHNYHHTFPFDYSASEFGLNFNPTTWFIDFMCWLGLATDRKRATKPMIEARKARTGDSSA
Summary of the method: as §1

SCD1 = biological target: T3, SCD1 (Homo sapiens, UniProt O00767); assay: Growth inhibition of humanized yeast strain expressing SCD1 as sole desaturase; settings: humanized yeast strain expressing SCD1
T3 construct: host or cells: S. cerevisiae ole1Δ strain (W303 pdr1Δ pdr3Δ background), plasmid pRS316 with TDH3 promoter and CYC1 terminator
T3 sequence (O00767 1-359): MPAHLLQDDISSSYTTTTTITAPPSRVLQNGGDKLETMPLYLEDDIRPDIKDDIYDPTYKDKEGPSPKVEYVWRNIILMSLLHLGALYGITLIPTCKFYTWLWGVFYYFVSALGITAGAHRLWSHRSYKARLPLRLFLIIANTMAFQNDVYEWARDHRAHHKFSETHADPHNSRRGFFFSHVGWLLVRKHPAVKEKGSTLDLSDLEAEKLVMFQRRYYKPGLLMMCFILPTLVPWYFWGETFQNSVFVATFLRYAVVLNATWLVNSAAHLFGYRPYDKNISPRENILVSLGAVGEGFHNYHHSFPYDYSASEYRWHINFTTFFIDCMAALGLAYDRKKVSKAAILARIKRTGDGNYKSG
Summary of the method: as §1

Compound	pIC50 (Ole1)	OLE1 % Max Inhibition (Ole1)	pIC50 (SCD5)	SCD5 % Max Inhibition (SCD5)	pIC50 (SCD1)	SCD1 % Max Inhibition (SCD1)
Cc1nn(C)c2cc(-c3noc(C4CCN(C(=O)CNC(=O)c5ccccc5)C4)n3)ccc12 (centres unmarked) [Compound 209]	< 4.35	3.74%	< 4.35	78.88%	< 4.35	101.51%
CCN1C(=O)COc2ccc(-c3noc(C4(c5ccc(OC)cc5)CC4)n3)cc21 [Compound 491]	< 4.35	107.15%	< 4.35	83.61%		118.81%
Cc1nn(C)c2cc(-c3noc(C4CCN(C(=O)CNC(=O)c5cccc(C#N)c5)CC4)n3)ccc12 [Compound 268]	< 4.35	4.39% and 0.14%	< 4.35	8.68% and 2.67%	≤ 4.35	79.03% and 65%
Cc1nn(C)c2cc(-c3noc(C4CCN(C(=O)Oc5ccccc5)CC4)n3)ccc12 [Compound 272]	< 4.35	40.3%	< 4.35	51.9%		70.8%
CCn1nc(C)c2ccc(-c3noc(C4CCN(C(=O)OC(C)(C)C)CC4)n3)cc21 [Compound 301]	< 4.35	99.4%	< 4.35	21.0%		96.2%
COc1ccc(-c2noc(C3CCN(C(=O)C4CC(=O)N(c5cccc(C#N)c5)C4)CC3)n2)cc1OC(C)C (centres unmarked) [Compound 296]	< 4.35	99.1%	< 4.35	22.6%	< 4.35	86.6%
Cc1nn(C)c2ccc(-c3noc(C4CCN(C(=O)c5ccc(C(C)C)cc5)CC4)n3)cc12 [Compound 297]	4.60	42.0%	< 4.35	9.2%		5.7%
Cc1nn(C)c2cc(-c3noc(C4CCN(C(=O)[C@H]5CC(=O)N(c6ccc(C#N)cc6)C5)CC4)n3)ccc12 [Compound 307]	< 4.35	7.8% and 4.08%	< 4.35	52.5% and 27.45%	≤ 4.35	78.2% and 70.58%
Cc1nn(C)c2cc(-c3noc(C4CCN(C(=O)CNC(=O)c5cc(F)ccc5C(F)(F)F)CC4)n3)ccc12 [Compound 304]	< 4.35	14.7%	< 4.35	51.6%		74.9%
Cc1nn(C)c2cc(-c3noc(C4CCN(C(=O)c5ccc(C(C)C)cc5)CC4)n3)ccc12 [Compound 290]	< 4.35	20.6%	< 4.35	8.8%		3.3%
CCN(Cc1nc(-c2ccc(OC)c(OC)c2)no1)C(=O)Cc1ccccc1 [Compound 492]	< 4.35	106.45%	< 4.35	75.64%		83.92%
CCOC(=O)C(C)(C)n1cc2ccc(-c3noc(C4CCN(C(=O)C5CC(=O)N(c6ccccc6)C5)CC4)n3)cc2n1 (centres unmarked) [Compound 193]	< 4.35	89.35%	< 4.35	85.76%	< 4.35	80.72%
Cn1c(=O)[nH]c2ccc(-c3noc(C4CCN(C(=O)CNC(=O)c5ccccc5)CC4)n3)cc21 [Compound 162]	< 4.35	100.35%	< 4.35	76.89%	< 4.35	84.54%
CCN1C(=O)COc2ccc(-c3nc(C4(c5ccccc5)CC4)no3)cc21 [Compound 159]	< 4.35	46.92%	4.86	10.25%	4.41	70.17%
COc1cc(-c2noc(C3CCN(C(=O)CNC(=O)c4ccccc4)CC3)n2)ccc1OC1CC1 [Compound 249]	< 4.35	88.69%	4.38	61.88%		80.12%
O=C(C1CC(=O)N(c2cccc(Cl)c2)C1)N1CCC(c2nc(N3CC4(COC4)C3)no2)CC1 (centres unmarked) [Compound 339]	< 4.35	85.7%	< 4.35	75.4%	< 4.35	56.1%
CC(C)c1ccc(C(=O)N2CCC(c3nc(C(=O)Nc4ccnn4C)no3)CC2)cc1 [Compound 287]	< 4.35	93.89%	< 4.35	66.81%		72.51%
CC(C)n1ncc2cc(-c3noc(C4CCN(C(=O)CNC(=O)c5ccccc5)CC4)n3)ccc21 [Compound 228]	< 4.35	21.30%	< 4.35	2.72%		51.80%
CC(C)c1ccc(C(=O)N2CCC(c3nc(N4CC5(CCCO5)C4)no3)CC2)cc1 [Compound 336]	< 4.35	86.7%	< 4.35	74.1%		56.9%
Cc1nn(C)c2cc(-c3noc(C4CCN(C(=O)CNC(=O)c5ccsn5)CC4)n3)ccc12 [Compound 226]	< 4.35	1.24%	< 4.35	0.69%	< 4.35	33.20%
COc1cc(-c2noc(C3CCN(C(=O)CNC(=O)c4ccccc4)CC3)n2)ccc1OC(F)(F)F [Compound 253]	< 4.35	106.42%	< 4.35	63.11%		62.07%
CC(C)c1ccc(C(=O)N2CCC(c3nc(N4CC5(COC5)C4)no3)CC2)cc1 [Compound 337]	< 4.35	86.4%	< 4.35	61.6%		49.6%
CC(C)(CO)n1cc2ccc(-c3noc(C4CCN(C(=O)CNC(=O)c5ccccc5)CC4)n3)cc2n1 [Compound 202]	< 4.35	94.93%	< 4.35	74.20%	< 4.35	74.09%
CCn1nc2cc(-c3noc(C4CCN(C(=O)CNC(=O)c5ccccc5)CC4)n3)ccc2c1C [Compound 320]	< 4.35	28.5%	< 4.35	76.0%		74.7%
CCOc1ccc(-c2noc(N3CCC(C(=O)N4CCO[C@@H](c5ccccc5)C4)CC3)n2)cc1OC [Compound 217]	< 4.35	10.39%	< 4.35	12.62%	4.43	57.90%
COc1ccc(-c2noc(CCNC(=O)CNC(=O)c3ccccc3)n2)cc1OC [Compound 484]	< 4.35	92.09%	< 4.35	81.46%		75.84%
Cc1nn(C)c2cc(-c3noc(C4CCN(C(=O)C5CC(=O)N(c6cccc(C#N)c6)C5)CC4)n3)ccc12 (centres unmarked) [Compound 168]	< 4.35	4.90% and 8.34%	< 4.35		< 4.35	114.58% and 74.07%
